We go through 1 substance from patent US7985594B2, “Biradical polarizing agents for dynamic nuclear polarization” (Massachusetts Institute of Technology, priority 2006, dated 2011).

Data set [1] in a line: DNP enhanced 13C-CPMAS NMR experiments (1H polarization enhancement by microwave irradiation). The note with it: 5 mM TOTAPOL, 2 M 13C-urea in d6-DMSO/D2O/H2O, 90 K, 5 T.
Protocol: Solutions for the DNP/NMR experiments—2 M ^13C-urea or 0.15 M U—^13C—^15N-proline—were prepared in d6-DMSO/D2O/H2O (60:34:6 w/w) or d8-glycerol/D2O/H2O (60:32:8 w/w), and doped with 5 mM TOTAPOL (10 mM electron spins). The reduced ^1H concentration was required to optimize the signal enhancements. DNP experiments using TOTAPOL as a polarizing agent were performed on a custom designed DNP/NMR spectrometer and triple-resonance (e^−, ^1H and ^13C/^15N) cryogenic (90 K) MAS probe^31 operating at 5 T (140 GHz EPR and 211 MHz ^1H NMR). The enhanced ^1H polarization developed by the microwave irradiation was detected indirectly via observation of the cross-polarized (CP) ^13C signals. The 140 GHz microwaves were generated by a gyrotron, a vacuum electron device capable of producing high power (>10 W) millimeter waves^26. In certain embodiments, sapphire, rather than zirconia, rotors are preferred for the DNP experiments since they transmit microwaves with ˜30% less attenuation. […]
The ^1H polarization is initially saturated by a series of 90° pulses followed by a delay of 3 T2. […] Note that the error for the enhancement factor is determined primarily by the uncertainty in measuring the intensity of the un-enhanced NMR signal.
A short description of data set [2]: Stability in glycerol/water. It counts as physicochemical. The note with it: glycerol/water (6:4 w/w) at −10 °C for months. An excerpt:
(§1) In contrast, BT2E is insoluble in all of these media.

A short description of data set [3]: Solubility in aqueous media. Format: physicochemical.
Excerpt: as §1

Regarding “1-(2,2,6,6-tetramethyl-1-oxy-4-piperidinyl)oxy-3-(2,2,6,6-tetramethyl-1-oxy-4-piperidinyl)amino-propan-2-ol [TOTAPOL]”, the “time constant for growth of the enhanced signal (microwaves on)” value in data set [1] was roughly 5.5 s. Besides, the stability in glycerol/water result in data set [2] is on record as “stable”. For the same substance, the “solubility in 200 mM salt” value in data set [3] (200 mM salt, solvent conditions common for protein samples) is listed as “soluble in 200 mM salt”. Further, the solubility in water result in data set [3] (water) is reported as “soluble in water”.
